Results from patent US9695155B2, “Herbicidal substituted pyrimidinyloxy benzene compounds” (E. I. DU PONT DE NEMOURS AND COMPANY, priority 2013, dated 2017).

How the values were obtained:
foxtail, green = test: Test C postemergence; assay type: in vivo, Setaria viridis; conditions: for Plant response rating (0 to 100), Foxtail, Green: postemergence; for Plant response rating, Foxtail, Green: Postemergence, scale 0 to 100 (0 no effect, 100 complete control)
Source text: (§1) Seeds of plant species selected from blackgrass (Alopecurus myosuroides), Italian ryegrass (Lolium multiflorum), wheat, winter (winter wheat, Triticum aestivum), galium (catchweed bedstraw, Galium aparine), corn (Zea mays), large (Lg) crabgrass (Digitaria sanguinalis), giant foxtail (Setaria faberii), johnsongrass (Sorghum halepense), lambsquarters (Chenopodium album), morningglory (Ipomoea coccinea), yellow nutsedge (Cyperus esculentus), pigweed (Amaranthus retroflexus), ragweed (common ragweed, Ambrosia elatior), soybean (Glycine max), barnyardgrass (Echinochloa crus-galli), oilseed rape (Brassica napus), waterhemp (common waterhemp, Amaranthus rudis), kochia (Kochia scoparia), wild oat (Avena fatua), surinam grass (Brachiaria decumbens), foxtail, green (green foxtail, Setaria viridis), goosegrass (Eleusine indica), bromegrass, downy (downy bromegrass, Bromus tectorum), nightshade (eastern black nightshade, Solanum ptycanthum), cocklebur (common cocklebur, Xanthium strumarium), cupgrass, woolly (woolly cupgrass, Eriochloa villosa), bermudagrass (Cynodon dactylon), sunflower, (common oilseed sunflower, Helianthus annuus), Russian thistle (Salsola kali), and velvetleaf (Abutilon theophrasti) were planted into a blend of loam soil and sand and treated preemergence with test chemicals formulated in a non-phytotoxic solvent mixture which included a surfactant.
(§2) At the same time, plants selected from these crop and weed species and also barley, winter (winter barley, Hordeum vulgare), windgrass (Apera spica-venti), chickweed (common chickweed, Stellaria media), deadnettle (henbit deadnettle, Lamium amplexicaule), and canarygrass (littleseed canarygrass, Phalaris minor) were planted in pots containing Redi-Earth® planting medium (Scotts Company, 14111 Scottslawn Road, Marysville, Ohio 43041) comprising spaghnum peat moss, vermiculite, wetting agent and starter nutrients and treated with postemergence applications of test chemicals formulated in the same manner. Plants ranged in height from 2 to 18 cm (1- to 4-leaf stage) for postemergence treatments. Treated plants and controls were maintained in a greenhouse for 13 to 15 days, after which time all species were compared to controls and visually evaluated. Plant response ratings, summarized in Table C, are based on a scale of 0 to 100 where 0 is no effect and 100 is complete control. A dash (-) response means no test result.

goosegrass = test: Test C postemergence; assay type: in vivo, Eleusine indica; conditions: for Plant response rating (0 to 100), Goosegrass: postemergence; for Plant response rating, Goosegrass: Postemergence, scale 0 to 100 (0 no effect, 100 complete control)
Source text: as §1, §2

cocklebur = test: Test C postemergence; assay type: in vivo, Xanthium strumarium; conditions: for Plant response rating (0 to 100), Cocklebur: postemergence; for Plant response rating, Cocklebur: Postemergence, scale 0 to 100 (0 no effect, 100 complete control)
Source text: as §1, §2

barley, winter = test: Test C postemergence; assay type: in vivo, Hordeum vulgare; conditions: for Plant response rating (0 to 100), Barley: postemergence; for Plant response rating, Barley: Postemergence, scale 0 to 100 (0 no effect, 100 complete control)
Source text: as §1, §2

windgrass = test: Test C postemergence; assay type: in vivo, Apera spica-venti; conditions: for Plant response rating (0 to 100), Windgrass: postemergence; for Plant response rating, Windgrass: Postemergence, scale 0 to 100 (0 no effect, 100 complete control)
Source text: as §1, §2

canarygrass = test: Test C postemergence; assay type: in vivo, Phalaris minor; conditions: for Plant response rating (0 to 100), Canarygrass: postemergence; for Plant response rating, Canarygrass: Postemergence, scale 0 to 100 (0 no effect, 100 complete control)
Source text: as §1, §2

smartweed = test: Test E preemergence; assay type: in vivo, ladysthumb smartweed; conditions: for Smartweed plant response rating: scale 0 to 100 (0 no effect, 100 complete control); for Plant response rating, Smartweed: scale 0 to 100, 0 no effect, 100 complete control
Source text: Seeds of plant species selected from corn (Zea mays), soybean (Glycine max), velvetleaf (Abutilon theophrasti), lambsquarters (Chenopodium album), wild poinsettia (Euphorbia heterophylla), palmer pigweed (Amaranthus palmeri), waterhemp (common waterhemp, Amaranthus rudis), surinam grass (Brachiaria decumbens), large (Lg) crabgrass (Digitaria sanguinalis), Brazilian crabgrass (Digitaria horizontalis), fall panicum (Panicum dichotomiflorum), giant foxtail (Setaria faberii), green foxtail (Setaria viridis), goosegrass (Eleusine indica), johnsongrass (Sorghum halepense), ragweed (common ragweed, Ambrosia elatior), barnyardgrass (Echinochloa crus-galli), sandbur (southern sandbur, Cenchrus echinatus), arrowleaf sida (Sida rhombifolia), Italian ryegrass (Lolium multiflorum), dayflower (Virginia (VA) dayflower, Commelina virginica), field bindweed (Convolvulus arvensis), morningglory (Ipomoea coccinea), nightshade (eastern black nightshade, Solanum ptycanthum), kochia (Kochia scoparia), yellow nutsedge (Cyperus esculentus), cocklebur (common cocklebur, Xanthium strumarium), smartweed (ladysthumb smartweed, and hairy beggarticks (Bidens pilosa), were planted into a silt loam soil and treated preemergence with test chemicals formulated in a non-phytotoxic solvent mixture which included a surfactant.
At the same time, plants from these crop and weed species and also horseweed (Canada horseweed, Conyza canadensis), waterhemp_RES1, (ALS & Triazine resistant common waterhemp, Amaranthus rudis), and waterhemp_RES2, (ALS & HPPD resistant common waterhemp, Amaranthus rudis) were planted in pots containing Redi-Earth® planting medium (Scotts Company, 14111 Scottslawn Road, Marysville, Ohio 43041) comprising spaghnum peat moss, vermiculite, wetting agent and starter nutrients were treated with postemergence applications of test chemicals formulated in the same manner. Plants ranged in height from 2 to 18 cm for postemergence treatments (1- to 4-leaf stage). Treated plants and controls were maintained in a greenhouse for 14 to 21 days, after which time all species were compared to controls and visually evaluated. Plant response ratings, summarized in Table E, are based on a scale of 0 to 100 where 0 is no effect and 100 is complete control. A dash (-) response means no test result.

Clc1cnn(-c2ccccc2Oc2ncc(Br)cn2)c1 [Compound 5, 5-bromo-2-[2-(4-chloro-1H-pyrazol-1-yl)phenoxy]pyrimidine]
Plant response rating (0 to 100), Foxtail, Green (foxtail, green; 125 g ai/ha): 40
Plant response rating (0 to 100), Foxtail, Green (foxtail, green; 250 g ai/ha): 70
Plant response rating, Foxtail, Green (foxtail, green; 31 g ai/ha, 13 to 15 days): 0
Plant response rating, Foxtail, Green (foxtail, green; 62 g ai/ha): 40
Plant response rating (0 to 100), Goosegrass (goosegrass; 125 g ai/ha): 10
Plant response rating (0 to 100), Goosegrass (goosegrass; 250 g ai/ha): 15
Plant response rating, Goosegrass (goosegrass; 31 g ai/ha, 13 to 15 days): 0
Plant response rating, Goosegrass (goosegrass; 62 g ai/ha): 5
Plant response rating (0 to 100), Cocklebur (cocklebur; 125 g ai/ha): 50
Plant response rating (0 to 100), Cocklebur (cocklebur; 250 g ai/ha): 65
Plant response rating, Cocklebur (cocklebur; 31 g ai/ha, 13 to 15 days): 25
Plant response rating, Cocklebur (cocklebur; 62 g ai/ha): 50
Plant response rating (0 to 100), Barley (barley, winter; 125 g ai/ha): 5
Plant response rating (0 to 100), Barley (barley, winter; 250 g ai/ha): 10
Plant response rating, Barley (barley, winter; 31 g ai/ha, 13 to 15 days): 0
Plant response rating, Barley (barley, winter; 62 g ai/ha): 0
Plant response rating (0 to 100), Windgrass (windgrass; 125 g ai/ha): 60
Plant response rating (0 to 100), Windgrass (windgrass; 250 g ai/ha): 85
Plant response rating, Windgrass (windgrass; 31 g ai/ha, 13 to 15 days): 10
Plant response rating, Windgrass (windgrass; 62 g ai/ha): 40
Plant response rating (0 to 100), Canarygrass (canarygrass; 125 g ai/ha): 30
Plant response rating (0 to 100), Canarygrass (canarygrass; 250 g ai/ha): 40
Plant response rating, Canarygrass (canarygrass; 31 g ai/ha, 13 to 15 days): 5
Plant response rating, Canarygrass (canarygrass; 62 g ai/ha): 10

N#Cc1cccc(Oc2ncc(Cl)cn2)c1-n1cc(Cl)cn1 [Compound 72]
Smartweed plant response rating (smartweed; 16 g ai/ha): 0
Smartweed plant response rating (smartweed; 31 g ai/ha): 0
Smartweed plant response rating (smartweed; 62 g ai/ha): 0
Plant response rating, Smartweed (smartweed; 125 g ai/ha): 90
Plant response rating, Smartweed (smartweed; 250 g ai/ha): 98
